In EP4810052A2, “HCRHR2 SELECTIVE POLYPEPTIDES” (Gubra A/S, priority 2023, dated 2026):
Read-outs that look alike come from different tables or passages of the source. Starred links: 1 amine or outer side, 2 acyl side, 3 side chain; linkers in the order of their positions; H or OH if unused. Non-standard residues stand in square brackets, D forms with d. Residues, ends and D or L forms follow the SMILES beside them. Groups on a side chain read outwards from the residue. *: point of attachment. C20 diacid = O=C(O)CCCCCCCCCCCCCCCCCCC(=O)*; γGlu = O=C(O)[C@H](CCC(=O)[*:2])N[*:1]; NMeI = CC[C@H](C)[C@H](NC)C(=O)O; Nle = CCCC[C@H](N)C(=O)O; AEEA = NCCOCCOCC(=O)O; Aib = CC(C)(N)C(=O)O

What was measured:
hCRHR2 = molecular target: T1, hCRHR2 (Homo sapiens, UniProt Q13324); experiment: HTRF cAMP assay, determination of hCRHR2 potency (peptide libraries 5 conc., purified peptides 11 conc.); type: cell-based
T1 sequence (Q13324 1-411): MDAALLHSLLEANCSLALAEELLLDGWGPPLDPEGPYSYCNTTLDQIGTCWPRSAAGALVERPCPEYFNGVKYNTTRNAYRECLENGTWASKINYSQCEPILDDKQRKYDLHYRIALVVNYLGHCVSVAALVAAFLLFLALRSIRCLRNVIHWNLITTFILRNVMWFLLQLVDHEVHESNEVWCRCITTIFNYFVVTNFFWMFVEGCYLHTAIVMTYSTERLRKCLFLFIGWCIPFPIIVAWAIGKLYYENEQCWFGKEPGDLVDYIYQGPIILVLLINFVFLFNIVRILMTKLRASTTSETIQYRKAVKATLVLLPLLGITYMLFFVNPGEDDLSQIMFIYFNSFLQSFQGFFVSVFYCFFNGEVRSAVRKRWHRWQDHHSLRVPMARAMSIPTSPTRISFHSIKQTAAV
Procedure, shortened: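 CHO-K1 cells stably expressing human CRHR2, thawed from frozen stocks just before use and run in suspension; cAMP measured by competitive HTRF immunoassay (cryptate anti-cAMP, d2-cAMP). Agonist peptides tested at 5 (libraries) or 11 (purified) concentrations; EC50 from sigmoid variable-slope nonlinear regression.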

hCRHR1 = molecular target: T2, hCRHR1 (Homo sapiens, UniProt P34998); experiment: HTRF cAMP assay, determination of hCRHR1 potency (peptide libraries 5 conc., purified peptides 11 conc.); type: cell-based
T2 sequence (P34998 24-415): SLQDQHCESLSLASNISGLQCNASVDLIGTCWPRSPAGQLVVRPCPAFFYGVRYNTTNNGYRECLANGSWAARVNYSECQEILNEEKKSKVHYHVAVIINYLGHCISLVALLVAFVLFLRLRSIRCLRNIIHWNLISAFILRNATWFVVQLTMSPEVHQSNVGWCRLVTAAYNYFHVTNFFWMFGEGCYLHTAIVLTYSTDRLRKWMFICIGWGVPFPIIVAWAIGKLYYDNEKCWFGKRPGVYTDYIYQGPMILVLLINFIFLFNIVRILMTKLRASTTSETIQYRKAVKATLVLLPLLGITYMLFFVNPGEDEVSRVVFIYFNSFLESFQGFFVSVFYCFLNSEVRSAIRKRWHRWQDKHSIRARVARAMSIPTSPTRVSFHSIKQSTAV
Procedure, shortened: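 CHO-K1 cells stably expressing human CRHR1, thawed from frozen stocks just before use, were stimulated in suspension with agonist peptides. cAMP was measured by HTRF competitive immunoassay (cryptate anti-cAMP antibody vs d2-cAMP).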

[1] = Table 3, matched molecular pairs X^38 L vs Nle, peptide library of Example 4, read-out: hCRHR2 pEC50 (converted)
[2] = Table 3, matched molecular pairs X^38 L vs Nle, peptide library of Example 4, read-out: hCRHR1 pEC50 (converted)
[3] = library peptides, matched molecular pairs L vs Nle in position X^38, read-out: Potency hCRHR2 pEC50 (converted)
[4] = library peptides, matched molecular pairs L vs Nle in position X^38, read-out: Potency hCRHR1 pEC50 (converted)

| Structure (SMILES) | EC50 (hCRHR2; [1]) [nM] | EC50 (hCRHR1; [2]) [µM] | EC50 (hCRHR2; [3]) [nM] | EC50 (hCRHR1; [4]) [µM] | other results |
| --- | --- | --- | --- | --- | --- |
| CCCC[C@H](NC(=O)[C@@H](NC(=O)[C@H](CCC(=O)O)NC(=O)[C@H](C)NC(=O)[C@H](CC(N)=O)NC(=O)[C@@H](NC(=O)[C@H](CCCCNC(=O)COCCOCCNC(=O)COCCOCCNC(=O)CC[C@H](NC(=O)CC[C@H](NC(=O)CCCCCCCCCCCCCCCCCCC(=O)O)C(=O)O)C(=O)O)NC(=O)[C@H](C)NC(=O)[C@H](CCC(N)=O)NC(=O)[C@H](CCC(=O)O)NC(=O)[C@H](CCCNC(=N)N)NC(=O)[C@H](C)NC(=O)[C@H](CO)NC(=O)[C@H](CCCNC(=N)N)NC(=O)[C@H](C)NC(=O)[C@H](CCCNC(=N)N)NC(=O)[C@H](C)NC(=O)[C@H](CCC(N)=O)NC(=O)[C@H](CCC(=O)O)NC(=O)[C@H](CC(C)C)NC(=O)[C@H](CC(C)C)NC(=O)[C@@H](NC(=O)[C@H](CCC(N)=O)NC(=O)[C@H](CC(C)C)NC(=O)[C@H](CC(C)C)NC(=O)CNC(=O)[C@@H](NC(=O)[C@@H]1CCCN1C(=O)[C@@H](NC(=O)[C@H](CC(=O)O)NC(=O)[C@H](CC(C)C)NC(=O)[C@H](CO)NC(=O)[C@H](CC(C)C)NC(=O)[C@@H](NC(=O)[C@@H](N)[C@@H](C)CC)C(C)C)C(C)C)[C@@H](C)CC)[C@@H](C)CC)[C@@H](C)O)[C@@H](C)CC)C(=O)N[C@@H](C)C(=O)N[C@@H](CCC(=O)O)C(=O)N[C@H](C(N)=O)[C@@H](C)CC [SEQ ID NO: 36] (H-IVLSLDVPIGLLQILLEQARARSAREQAK([AEEA-AEEA-γGlu-γGlu-C20 diacid])TNAEI[Nle]AEI-NH2) | 0.158 | 5.01 | – | – | – |
| CCCC[C@H](NC(=O)[C@@H](NC(=O)[C@H](CCC(=O)O)NC(=O)[C@H](C)NC(=O)[C@H](CC(N)=O)NC(=O)C(C)(C)NC(=O)[C@H](CCCCNC(=O)COCCOCCNC(=O)COCCOCCNC(=O)CC[C@H](NC(=O)CC[C@H](NC(=O)CCCCCCCCCCCCCCCCCCC(=O)O)C(=O)O)C(=O)O)NC(=O)[C@H](C)NC(=O)[C@H](CCC(N)=O)NC(=O)[C@H](CCC(=O)O)NC(=O)[C@H](CCCNC(=N)N)NC(=O)[C@H](C)NC(=O)[C@H](C)NC(=O)[C@H](CCCNC(=N)N)NC(=O)[C@H](C)NC(=O)[C@H](CCCNC(=N)N)NC(=O)[C@H](C)NC(=O)[C@H](CCC(N)=O)NC(=O)[C@H](C)NC(=O)[C@H](CC(C)C)NC(=O)[C@H](CC(C)C)NC(=O)[C@@H](NC(=O)[C@H](CCC(N)=O)NC(=O)[C@H](CC(C)C)NC(=O)[C@H](CC(C)C)NC(=O)CNC(=O)[C@@H](NC(=O)[C@@H]1CCCN1C(=O)[C@@H](NC(=O)[C@H](CC(=O)O)NC(=O)[C@H](CC(C)C)NC(=O)[C@H](CO)NC(=O)[C@H](CC(C)C)NC(=O)[C@@H](NC(=O)[C@@H](NC)[C@@H](C)CC)C(C)C)C(C)C)[C@@H](C)CC)[C@@H](C)CC)[C@@H](C)CC)C(=O)N[C@@H](C)C(=O)N[C@@H](CCC(=O)O)C(=O)N[C@H](C(N)=O)C(C)C [compound 119] (H-[NMeI]VLSLDVPIGLLQILLAQARARAAREQAK([AEEA-AEEA-γGlu-γGlu-C20 diacid])[Aib]NAEI[Nle]AEV-NH2) | – | – | – | – | EC50 (hCRHR2; Table 4, library peptides having X^38 = Nle, read-out: hCRHR2 pEC50 (converted)): 0.02 nM; EC50 (hCRHR1; Table 4, library peptides having X^38 = Nle, read-out: hCRHR1 pEC50 (converted)): 1 µM |
| CC[C@H](C)[C@H](N)C(=O)N[C@H](C(=O)N[C@@H](CC(C)C)C(=O)N[C@@H](CO)C(=O)N[C@@H](CC(C)C)C(=O)N[C@@H](CC(=O)O)C(=O)N[C@H](C(=O)N1CCC[C@H]1C(=O)N[C@H](C(=O)NCC(=O)N[C@@H](CC(C)C)C(=O)N[C@@H](CC(C)C)C(=O)N[C@@H](CCC(N)=O)C(=O)N[C@H](C(=O)N[C@@H](CC(C)C)C(=O)N[C@@H](CC(C)C)C(=O)N[C@@H](CCC(=O)O)C(=O)N[C@@H](CCC(N)=O)C(=O)N[C@@H](C)C(=O)N[C@@H](CCCNC(=N)N)C(=O)N[C@@H](C)C(=O)N[C@@H](CCC(N)=O)C(=O)N[C@@H](C)C(=O)N[C@@H](C)C(=O)N[C@@H](CCCNC(=N)N)C(=O)N[C@@H](CCC(=O)O)C(=O)N[C@@H](CCCNC(=N)N)C(=O)N[C@@H](C)C(=O)N[C@@H](CCCCNC(=O)COCCOCCNC(=O)COCCOCCNC(=O)CC[C@H](NC(=O)CC[C@H](NC(=O)CCCCCCCCCCCCCCCCCCC(=O)O)C(=O)O)C(=O)O)C(=O)N[C@H](C(=O)N[C@@H](CC(N)=O)C(=O)N[C@@H](C)C(=O)N[C@@H](CCC(=O)O)C(=O)N[C@H](C(=O)N[C@@H](CC(C)C)C(=O)N[C@@H](C)C(=O)N[C@@H](CCC(=O)O)C(=O)N[C@H](C(N)=O)C(C)C)[C@@H](C)CC)[C@@H](C)O)[C@@H](C)CC)[C@@H](C)CC)C(C)C)C(C)C [compound 48] (H-IVLSLDVPIGLLQILLEQARAQAARERAK([AEEA-AEEA-γGlu-γGlu-C20 diacid])TNAEILAEV-NH2) | – | – | 0.398 | 20 | – |
| CC[C@H](C)[C@H](N)C(=O)N[C@H](C(=O)N[C@@H](CC(C)C)C(=O)N[C@@H](CO)C(=O)N[C@@H](CC(C)C)C(=O)N[C@@H](CC(=O)O)C(=O)N[C@H](C(=O)N1CCC[C@H]1C(=O)N[C@H](C(=O)NCC(=O)N[C@@H](CC(C)C)C(=O)N[C@@H](CC(C)C)C(=O)N[C@@H](CCC(N)=O)C(=O)N[C@H](C(=O)N[C@@H](CC(C)C)C(=O)N[C@@H](CC(C)C)C(=O)N[C@@H](CCC(=O)O)C(=O)N[C@@H](CCC(N)=O)C(=O)N[C@@H](C)C(=O)N[C@@H](CCCNC(=N)N)C(=O)N[C@@H](C)C(=O)N[C@@H](CCCNC(=N)N)C(=O)N[C@H](C(=O)N[C@@H](C)C(=O)N[C@@H](CCCNC(=N)N)C(=O)N[C@@H](CCC(=O)O)C(=O)N[C@@H](CCC(N)=O)C(=O)N[C@@H](C)C(=O)N[C@@H](CCCCNC(=O)COCCOCCNC(=O)COCCOCCNC(=O)CC[C@H](NC(=O)CC[C@H](NC(=O)CCCCCCCCCCCCCCCCCCC(=O)O)C(=O)O)C(=O)O)C(=O)N[C@H](C(=O)N[C@@H](CC(N)=O)C(=O)N[C@@H](C)C(=O)N[C@@H](CCC(=O)O)C(=O)N[C@H](C(=O)N[C@@H](CC(C)C)C(=O)N[C@@H](C)C(=O)N[C@@H](CCC(=O)O)C(=O)N[C@H](C(N)=O)C(C)C)[C@@H](C)CC)[C@@H](C)O)C(C)C)[C@@H](C)CC)[C@@H](C)CC)C(C)C)C(C)C [compound 90] (H-IVLSLDVPIGLLQILLEQARARVAREQAK([AEEA-AEEA-γGlu-γGlu-C20 diacid])TNAEILAEV-NH2) | – | – | 1 | 20 | – |
| CC[C@H](C)[C@H](N)C(=O)N[C@H](C(=O)N[C@@H](CC(C)C)C(=O)N[C@@H](CO)C(=O)N[C@@H](CC(C)C)C(=O)N[C@@H](CC(=O)O)C(=O)N[C@H](C(=O)N1CCC[C@H]1C(=O)N[C@H](C(=O)NCC(=O)N[C@@H](CC(C)C)C(=O)N[C@@H](CC(C)C)C(=O)N[C@@H](CCC(N)=O)C(=O)N[C@H](C(=O)N[C@@H](CC(C)C)C(=O)N[C@@H](CC(C)C)C(=O)N[C@@H](CCC(=O)O)C(=O)N[C@@H](CCC(N)=O)C(=O)N[C@@H](C)C(=O)N[C@@H](CCCNC(=N)N)C(=O)N[C@@H](C)C(=O)N[C@@H](CCC(N)=O)C(=O)N[C@@H](C)C(=O)N[C@@H](CCC(N)=O)C(=O)N[C@@H](CCCNC(=N)N)C(=O)N[C@@H](CCC(=O)O)C(=O)N[C@@H](CCC(N)=O)C(=O)N[C@@H](C)C(=O)N[C@@H](CCCCNC(=O)COCCOCCNC(=O)COCCOCCNC(=O)CC[C@H](NC(=O)CC[C@H](NC(=O)CCCCCCCCCCCCCCCCCCC(=O)O)C(=O)O)C(=O)O)C(=O)N[C@H](C(=O)N[C@@H](CC(N)=O)C(=O)N[C@@H](C)C(=O)N[C@@H](CCC(=O)O)C(=O)N[C@H](C(=O)N[C@@H](CC(C)C)C(=O)N[C@@H](C)C(=O)N[C@@H](CCC(=O)O)C(=O)N[C@H](C(N)=O)C(C)C)[C@@H](C)CC)[C@@H](C)O)[C@@H](C)CC)[C@@H](C)CC)C(C)C)C(C)C [SEQ ID NO: 31] (H-IVLSLDVPIGLLQILLEQARAQAQREQAK([AEEA-AEEA-γGlu-γGlu-C20 diacid])TNAEILAEV-NH2) | 0.794 | 3.98 | – | – | – |
